The source of these data is ChEMBL document CHEMBL5727648, “5-aromatic alkynyl substituted benzamide compound and preparation method, pharmaceutical composition, and use thereof” (2020).

In the experiment the target is Metabotropic glutamate receptor 5 (Homo sapiens, UniProt P41594). Put plainly: The Fluo 8-AM fluorescent dye is an […] derivative of Fluo 8 which can easily penetrate the cell membrane into the cell by culture. The fluorescent dye into the cell will be hydrolyzed by intracellular esterase, the resulting Fluo 8 cannot easily pass through the lipid bimolecular membrane as a polar molecule, and will retain in the cell, and combine with calcium (Ca2+) to produce fluoresces.Cells expressing GPCR receptor protein (mGluR5) were first calibrated with a calcium ion sensitive fluorescent probe and then stimulated with the compound. After stimulation, the activation of the receptor lead to the calcium ion mobilization, and the fluorescent probe captures the calcium ion to induce the fluorescence signal. The signal can be read by a fluorescent plate reader. The fluorescent plate reader contains a sampling head for compound addition, thus enabling the change of the fluorescence value of the compound be read in real time. The experiment is classed as cell-based.
Sequence of Metabotropic glutamate receptor 5 (P41594 whole entry): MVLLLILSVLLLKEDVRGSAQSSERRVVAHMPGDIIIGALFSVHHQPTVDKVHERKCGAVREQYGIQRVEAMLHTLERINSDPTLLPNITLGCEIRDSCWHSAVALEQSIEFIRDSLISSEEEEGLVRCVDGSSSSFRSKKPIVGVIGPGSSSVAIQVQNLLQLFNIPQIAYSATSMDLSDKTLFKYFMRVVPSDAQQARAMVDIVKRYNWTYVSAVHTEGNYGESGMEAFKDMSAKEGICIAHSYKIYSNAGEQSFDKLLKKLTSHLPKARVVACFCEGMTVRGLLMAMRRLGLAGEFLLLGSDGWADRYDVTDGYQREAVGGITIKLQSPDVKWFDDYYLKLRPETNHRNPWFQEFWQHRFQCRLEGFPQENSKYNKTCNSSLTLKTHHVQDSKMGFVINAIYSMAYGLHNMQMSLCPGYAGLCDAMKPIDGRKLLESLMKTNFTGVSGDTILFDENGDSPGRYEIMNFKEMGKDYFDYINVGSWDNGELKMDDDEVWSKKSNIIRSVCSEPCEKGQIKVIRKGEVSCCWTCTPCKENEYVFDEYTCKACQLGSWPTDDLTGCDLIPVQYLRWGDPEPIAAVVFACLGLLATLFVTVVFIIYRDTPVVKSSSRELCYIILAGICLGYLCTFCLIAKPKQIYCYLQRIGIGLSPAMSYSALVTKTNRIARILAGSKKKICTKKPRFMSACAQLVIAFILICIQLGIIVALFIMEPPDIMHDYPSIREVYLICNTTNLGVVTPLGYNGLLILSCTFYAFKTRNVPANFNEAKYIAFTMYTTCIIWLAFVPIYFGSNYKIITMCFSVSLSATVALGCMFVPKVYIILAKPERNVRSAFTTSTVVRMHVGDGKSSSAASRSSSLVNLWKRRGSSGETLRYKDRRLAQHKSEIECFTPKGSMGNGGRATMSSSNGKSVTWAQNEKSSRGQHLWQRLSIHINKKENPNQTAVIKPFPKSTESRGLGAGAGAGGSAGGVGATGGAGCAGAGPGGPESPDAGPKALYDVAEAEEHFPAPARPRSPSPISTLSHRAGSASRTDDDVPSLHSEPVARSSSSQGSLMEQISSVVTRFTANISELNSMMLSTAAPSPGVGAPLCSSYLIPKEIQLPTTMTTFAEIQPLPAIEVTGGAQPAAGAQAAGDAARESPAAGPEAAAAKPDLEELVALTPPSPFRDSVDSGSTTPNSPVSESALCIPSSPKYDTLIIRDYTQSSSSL

As usually defined, the IC50 is the concentration at which inhibition is half-maximal. On to `Cc1nc(C#Cc2cccc(C(=O)N3CCc4ccccc4C3)c2)cs1`, for which the IC50 amounted to 14.4 nM.
In the case of `Cc1nc(C#Cc2cccc(C(=O)Nc3cccnc3)c2)cs1` it was 14.2 nM.
